US10174037B2, “Dihydropyrazolopyrimidinone compounds as PDE2 inhibitors” (Merck Sharp & Dohme Corp., priority 2015, dated 2019)

Target: human PDE2A1 (Homo sapiens (Human), UniProt O00408)
Assay: PDE selectivity IMAP FP assay, human PDE2A1
Format: biochemical
Details: Human PDE2; Lab B; read-out: Human PDE2 Ki (nM) Lab B
Procedure: Selectivity for PDE2, as compared to other PDE families, was assessed using the IMAP® technology. Human PDE10A2 enzyme was prepared from cytosolic fractions of transiently transfected HEK cells.
A Labcyte POD 810 (Labcyte, Sunnyvale, Calif.) was used to dispense 200 nL from each well of the titration plate to make eleven copies of the assay plate for each titration, one copy for each PDE enzyme. A solution of each enzyme (dilution from aliquots, sufficient to produce 20% substrate conversion) and a separate solution of FAM-labeled cAMP or FAM-labeled cGMP from Molecular Devices (Sunnyvale, Calif., product # R7506 or cGMP#R7508), at a final concentration of 50 nM were made in the assay buffer (10 mM Tris HCl, pH 7.2, 10 mM MgCl2, 0.05% NaN3 0.01% Tween-20, and 1 mM DTT). Note that the substrate for PDE2 is 50 nM FAM cAMP containing 1000 nM of cGMP. The enzyme and the substrate were then added to the assay plates in two consecutive additions of 10 μL and then shaken to mix. The reaction was allowed to proceed at room temperature for 60 minutes. A binding solution was then made from the kit components, comprised of 80% Solution A, 20% Solution B and binding reagent at a volume of 1/600 the total binding solution. The enzymatic reaction was stopped by addition of 60 μL of the binding solution to each well of the assay plate. […] The plates were incubated at room temperature for one hour, then the parallel and perpendicular fluorescence was measured using a Tecan Genios Pro plate reader (Tecan, Switzerland). […] The intrinsic PDE2 inhibitory activity of a compound which may be used in accordance with the present invention may be determined by these assays. […]
The PDE2 Ki is a measure of the ability of the test compound to inhibit the action of the PDE2 enzyme.

Chain of human PDE2A1 (O00408 other isoform, or with tags, fused parts or gaps): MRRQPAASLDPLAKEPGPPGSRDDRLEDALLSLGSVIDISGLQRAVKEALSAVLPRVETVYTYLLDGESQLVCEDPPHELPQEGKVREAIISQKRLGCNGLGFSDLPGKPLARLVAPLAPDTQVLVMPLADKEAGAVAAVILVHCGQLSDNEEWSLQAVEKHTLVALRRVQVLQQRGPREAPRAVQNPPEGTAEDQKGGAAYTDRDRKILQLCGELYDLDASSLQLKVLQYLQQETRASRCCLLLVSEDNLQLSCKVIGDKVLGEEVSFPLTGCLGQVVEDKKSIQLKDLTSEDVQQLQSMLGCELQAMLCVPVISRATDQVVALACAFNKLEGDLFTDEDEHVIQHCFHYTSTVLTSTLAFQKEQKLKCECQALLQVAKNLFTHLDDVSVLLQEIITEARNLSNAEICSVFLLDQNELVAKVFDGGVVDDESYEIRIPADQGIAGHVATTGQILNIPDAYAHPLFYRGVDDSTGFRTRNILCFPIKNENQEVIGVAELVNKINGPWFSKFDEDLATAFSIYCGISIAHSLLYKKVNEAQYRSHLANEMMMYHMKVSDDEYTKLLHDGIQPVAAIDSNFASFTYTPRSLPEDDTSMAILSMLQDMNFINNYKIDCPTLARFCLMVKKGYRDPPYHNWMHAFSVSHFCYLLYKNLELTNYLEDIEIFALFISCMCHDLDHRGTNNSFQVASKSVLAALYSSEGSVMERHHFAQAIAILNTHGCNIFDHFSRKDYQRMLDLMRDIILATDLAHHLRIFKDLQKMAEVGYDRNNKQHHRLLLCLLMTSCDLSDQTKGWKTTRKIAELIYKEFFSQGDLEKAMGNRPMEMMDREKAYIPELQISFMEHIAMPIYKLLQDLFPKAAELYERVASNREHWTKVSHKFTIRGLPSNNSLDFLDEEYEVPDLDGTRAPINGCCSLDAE

Ki [nM]	SMILES
105	CC[C@@H](O)c1nn([C@@H](C)c2ccc(C(F)(F)F)cc2)c2nc(O)[nH]c(=O)c12 (mixture of isomers) [Example 294, (R,S)- and (R,R)- and (S,S)- and (S,R)-6-Hydroxy-3-(1-hydroxypropyl)-1-(1-(4-(trifluoromethyl)phenyl)ethyl)-1H-pyrazolo[3,4-d]pyrimidin-4(5H)-one]
168	CC[C@@H](O)c1nn([C@@H](C)c2ccc(C(F)(F)F)cc2)c2nc(O)[nH]c(=O)c12 (mixture of isomers) [Example 295, (R,S)- and (R,R)- and (S,S)- and (S,R)-6-Hydroxy-3-(1-hydroxypropyl)-1-(1-(4-(trifluoromethyl)phenyl)ethyl)-1H-pyrazolo[3,4-d]pyrimidin-4(5H)-one]
2.9	CCC(c1ccc(C(F)(F)F)cc1)n1nc(CO)c2c(=O)[nH]c(N(C)C)nc21 (single isomer, unassigned) [Example 72, (R)- or (S)-6-(Dimethylamino)-3-(hydroxymethyl)-1-(1-(4-(trifluoromethyl)phenyl)propyl)-1H-pyrazolo[3,4-d]pyrimidin-4(5H)-one]
25	CC(c1ccc(C(F)(F)F)cc1F)n1nc(CO)c2c(=O)[nH]c(N(C)C)nc21 (single isomer, unassigned) [Example 80, (R)- or (S)-6-(Dimethylamino)-1-(1-(2-fluoro-4-(trifluoromethyl)phenyl)ethyl)-3-(hydroxymethyl)-1H-pyrazolo[3,4-d]pyrimidin-4(5H)-one]
35	CC(c1ccc(C(F)F)cc1)n1nc(CO)c2c(=O)[nH]c(N(C)C)nc21 (single isomer, unassigned) [Example 82, (R)- or (S)-1-(1-(4-(Difluoromethyl)phenyl)ethyl)-6-(dimethylarnino)-3-(hydroxymethyl)-1H-pyrazolo[3,4-d]pyrimidin-4(5H)-one]

The next lines start with the molecule.

SMILES	Ki [nM]
CC1(C(c2ccc(C(F)(F)F)cc2)n2nc(CO)c3c(=O)[nH]c(O)nc32)CC1 (single isomer, unassigned) [Example 4]	342
CC1(C(c2ccc(C(F)(F)F)c(F)c2)n2nc(CO)c3c(=O)[nH]c(O)nc32)CC1 (single isomer, unassigned) [Example 16]	702
CC1(C(c2ccc(C(F)(F)F)c(F)c2)n2nc(CO)c3c(=O)[nH]c(O)nc32)CC1 (single isomer, unassigned) [Example 17]	55
CC(c1ccc(C(F)(F)C(F)(F)F)cc1)n1nc(CO)c2c(=O)[nH]c(O)nc21 (single isomer, unassigned) [Example 31, (R)- or (S)-6-Hydroxy-3-(hydroxymethyl)-1-(1-(4-(perfluoroethyl)phenyl)ethyl)-1H-pyrazolo[3,4-d]pyrimidin-4(5H)-one]	50
CC(c1ccc(C(F)(F)C(F)(F)F)cc1)n1nc(CO)c2c(=O)[nH]c(O)nc21 (single isomer, unassigned) [Example 32, (S)- or (R)-6-Hydroxv-3-(hydroxymethyl)-1-(1-(4-(perfluoroethyl)phenyl)ethyl)-1H-pyrazolo[3,4-d]pyrimidin-4(5H)-one]	~1900
CN(C)c1nc2c(c(CO)nn2C(c2ccc(C(F)F)cc2)C2CC2)c(=O)[nH]1 (single isomer, unassigned) [Example 63]	3.2
CC(c1ccc(C(C)(C)C)cc1)n1nc(CO)c2c(=O)[nH]c(N(C)C)nc21 (single isomer, unassigned) [Example 67, (S)- or (R)-1-(1-(4-tert-Butylphenyl)ethyl)-6-(dimethylamino)-3-(hydroxymethyl)-1H-pyrazolo[3,4-d]pyrimidin-4(5H)-one]	0.25
CC(c1ccc(CC(F)(F)F)cc1)n1nc(CO)c2c(=O)[nH]c(N(C)C)nc21 (single isomer, unassigned) [Example 70, (R)- or (S)-6-(Dimethylamino)-3-(hydroxymethyl)-1-(1-(4-(2,2,2-trifluoroethyl)phenyl)ethyl)-1H-pvrazolo[3,4-d]pyrimidin-4(5H)-one]	4.1
